# Results published in patent US20020137929A1, “1 - (3-heterocyclylphenyl) isothiourea, -isourea, -guanidine and -amidine herbicidal agents” (Intellectual Property Department, BASF Aktiengesellschaft, priority 1998, published 2002).
# Assays:
# [1] = test system: AMBEL (Ragweed, Common); assay: Postemergence herbicidal evaluation; assay type: in vivo, Ambrosia artemisifolia; conditions: postemergence
# Summary of the method: (§1)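 Seedlings grown about two weeks were sprayed at 40 psi with compound dispersed in 50/50 acetone/water plus 0.5% TWEEN 20, at about 0.0156 to 0.500 kg/ha. Plants were kept in the greenhouse and scored 4–5 weeks later on a 0–9 visual scale against untreated controls.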
# [2] = test system: CASOB (Sicklepod); assay: Postemergence herbicidal evaluation; assay type: in vivo, Cassia obtusifolia; conditions: postemergence
# Summary of the method: as §1
# [3] = test system: CHEAL (Lambsquarters, Common); assay: Postemergence herbicidal evaluation; assay type: in vivo, Chenopodium album; conditions: postemergence
# Summary of the method: as §1
# [4] = test system: GALAP (Galium); assay: Postemergence herbicidal evaluation; assay type: in vivo, Galium aparine; conditions: postemergence
# Summary of the method: as §1
# [5] = test system: ECHCG (Barnyardgrass); assay: Postemergence herbicidal evaluation; assay type: in vivo, Echinochloa crus-galli; conditions: postemergence
# Summary of the method: as §1
# [6] = test system: SETVI (Foxtail, Green); assay: Postemergence herbicidal evaluation; assay type: in vivo, Setaria viridis; conditions: postemergence
# Summary of the method: as §1
# [7] = test system: ORYSAT (Rice, Tebonnet); assay: Postemergence herbicidal evaluation; assay type: in vivo, Oryza sativa, (L.) Tebonnet; conditions: postemergence
# Summary of the method: as §1
# [8] = test system: CHEAL (Lambsquarters, Common); assay: Preemergence herbicidal evaluation; assay type: in vivo, Chenopodium album; conditions: rated 4-5 weeks after treatment
# Summary of the method: (§2)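 Preemergence soil application of compound, sprayed in aqueous acetone at rates equivalent to about 0.0156 to 0.500 kg per hectare onto freshly sown cups. Plant response was judged by eye on a 0-9 scale four to five weeks later.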
# [9] = test system: ECHCG (Barnyardgrass); assay: Preemergence herbicidal evaluation; assay type: in vivo, Echinochloa crus-galli; conditions: rated 4-5 weeks after treatment
# Summary of the method: as §2
# [10] = test system: SETVI (Foxtail, Green); assay: Preemergence herbicidal evaluation; assay type: in vivo, Setaria viridis; conditions: rated 4-5 weeks after treatment
# Summary of the method: as §2
# [11] = test system: ZEAMX (Corn, Field); assay: Preemergence herbicidal evaluation; assay type: in vivo, Zea mays; conditions: rated 4-5 weeks after treatment
# Summary of the method: as §2
# [12] = test system: ECHORC (Watergrass (Calif.)); assay: Preemergence weed control under flooded paddy conditions; assay type: in vivo, Echinochloa oryzoides; conditions: rated 3-4 weeks after treatment
# Summary of the method: (§3)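 Silt loam, seeds in top 0.5 cm; flood held 1.5-3 cm; test cpd as acetone/water 50/50 into flood water, ~0.0313-0.500 kg/ha a.i.; greenhouse 3-4 wk; visual 0-9 score vs control.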
# [13] = test system: CYPIR (Rice Flatsedge); assay: as above; assay type: in vivo, Cyperus iria; conditions: rated 3-4 weeks after treatment
# Summary of the method: as §3
# [14] = test system: CYPSE (Flatsedge); assay: as above; assay type: in vivo, Cyperus serotinus; conditions: rated 3-4 weeks after treatment
# Summary of the method: (§4)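 Ratings on a 0-9 visual scale cover stand, vigor, malformation, size, chlorosis and overall appearance relative to a control, taken three to four weeks post-treatment. Application was into flood water over freshly sown silt loam at roughly 0.0313 to 0.500 kg/ha.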
# [15] = test system: MOOVA (Monochoria); assay: as above; assay type: in vivo, Monochoria vaginalis; conditions: rated 3-4 weeks after treatment
# Summary of the method: as §4
# [16] = test system: GLXMAW (Soybean, Williams); assay: Postemergence herbicidal evaluation; assay type: in vivo, Glycine max, (L.) Merr. cv Williams; conditions: postemergence
# Summary of the method: as §1
# [17] = test system: IPOHE (Morningglory, Ivyleaf); assay: Preemergence herbicidal evaluation; assay type: in vivo, Ipomoea hederacea; conditions: rated 4-5 weeks after treatment
# Summary of the method: as §2
structure (smiles),measurement,setting,value
CC1SC(=Nc2cc(N3C(=O)C4=C(CCCC4)C3=O)c(F)cc2Cl)N(C)C1=O (stereo not drawn) [Compound 4],AMBEL herbicidal rating,[1]; rate 0.0313 kg/ha,0.0
same,AMBEL herbicidal rating,[1]; rate 0.0625 kg/ha,0.0
same,AMBEL herbicidal rating,[1]; rate 0.1250 kg/ha,2.0
same,AMBEL herbicidal rating,[1]; rate 0.2500 kg/ha,6.0
same,AMBEL herbicidal rating,[1]; rate 0.5000 kg/ha,6.0
same,CASOB herbicidal rating,[2]; rate 0.0313 kg/ha,0.0
same,CASOB herbicidal rating,[2]; rate 0.0625 kg/ha,0.0
same,CASOB herbicidal rating,[2]; rate 0.1250 kg/ha,0.0
same,CASOB herbicidal rating,[2]; rate 0.2500 kg/ha,0.0
same,CASOB herbicidal rating,[2]; rate 0.5000 kg/ha,2.0
same,CHEAL herbicidal rating,[3]; rate 0.0313 kg/ha,2.0
same,CHEAL herbicidal rating,[3]; rate 0.0625 kg/ha,6.0
same,CHEAL herbicidal rating,[3]; rate 0.1250 kg/ha,8.0
same,CHEAL herbicidal rating,[3]; rate 0.2500 kg/ha,4.0
same,CHEAL herbicidal rating,[3]; rate 0.5000 kg/ha,4.0
same,GALAP herbicidal rating,[4]; rate 0.0313 kg/ha,0.0
same,GALAP herbicidal rating,[4]; rate 0.0625 kg/ha,2.0
same,GALAP herbicidal rating,[4]; rate 0.1250 kg/ha,2.0
same,GALAP herbicidal rating,[4]; rate 0.5000 kg/ha,6.0
same,ECHCG herbicidal rating,[5]; rate 0.0313 kg/ha,0.0
same,ECHCG herbicidal rating,[5]; rate 0.0625 kg/ha,0.0
same,ECHCG herbicidal rating,[5]; rate 0.1250 kg/ha,0.0
same,ECHCG herbicidal rating,[5]; rate 0.2500 kg/ha,4.0
same,ECHCG herbicidal rating,[5]; rate 0.5000 kg/ha,2.0
same,SETVI herbicidal rating,[6]; rate 0.0313 kg/ha,0.0
same,SETVI herbicidal rating,[6]; rate 0.0625 kg/ha,2.0
same,SETVI herbicidal rating,[6]; rate 0.1250 kg/ha,0.0
same,SETVI herbicidal rating,[6]; rate 0.2500 kg/ha,2.0
same,SETVI herbicidal rating,[6]; rate 0.5000 kg/ha,8.0
same,ORYSAT herbicidal rating,[7]; rate 0.0313 kg/ha,1.0
same,ORYSAT herbicidal rating,[7]; rate 0.0625 kg/ha,1.0
same,ORYSAT herbicidal rating,[7]; rate 0.1250 kg/ha,2.5
same,ORYSAT herbicidal rating,[7]; rate 0.2500 kg/ha,1.5
same,ORYSAT herbicidal rating,[7]; rate 0.5000 kg/ha,3.0
same,CHEAL preemergence herbicidal rating,[8]; rate 0.1250 kg/ha,0.0
same,CHEAL preemergence herbicidal rating,[8]; rate 0.2500 kg/ha,2.0
same,CHEAL preemergence herbicidal rating,[8]; rate 0.5000 kg/ha,9.0
same,ECHCG preemergence herbicidal rating,[9]; rate 0.1250 kg/ha,0.0
same,ECHCG preemergence herbicidal rating,[9]; rate 0.2500 kg/ha,2.0
same,ECHCG preemergence herbicidal rating,[9]; rate 0.5000 kg/ha,6.0
same,SETVI preemergence herbicidal rating,[10]; rate 0.1250 kg/ha,2.0
same,SETVI preemergence herbicidal rating,[10]; rate 0.2500 kg/ha,4.0
same,SETVI preemergence herbicidal rating,[10]; rate 0.5000 kg/ha,9.0
same,ZEAMX preemergence herbicidal rating,[11]; rate 0.1250 kg/ha,2.0
same,ZEAMX preemergence herbicidal rating,[11]; rate 0.2500 kg/ha,2.0
same,ZEAMX preemergence herbicidal rating,[11]; rate 0.5000 kg/ha,4.0
same,Herbicidal rating ECHORC,[12]; 0.0313 kg/ha,2.0
same,Herbicidal rating ECHORC,[12]; 0.0625 kg/ha,4.0
same,Herbicidal rating ECHORC,[12]; 0.1250 kg/ha,7.0
same,Herbicidal rating ECHORC,[12]; 0.2500 kg/ha,8.0
same,Herbicidal rating ECHORC,[12]; 0.5000 kg/ha,9.0
same,Herbicidal rating CYPIR,[13]; 0.0313 kg/ha,0.0
same,Herbicidal rating CYPIR,[13]; 0.0625 kg/ha,4.0
same,Herbicidal rating CYPIR,[13]; 0.1250 kg/ha,8.0
same,Herbicidal rating CYPIR,[13]; 0.2500 kg/ha,9.0
same,Herbicidal rating CYPIR,[13]; 0.5000 kg/ha,9.0
same,Herbicidal rating CYPSE,[14]; 0.0313 kg/ha,0.0
same,Herbicidal rating CYPSE,[14]; 0.0625 kg/ha,0.0
same,Herbicidal rating CYPSE,[14]; 0.1250 kg/ha,0.0
same,Herbicidal rating CYPSE,[14]; 0.2500 kg/ha,0.0
same,Herbicidal rating CYPSE,[14]; 0.5000 kg/ha,0.0
same,Herbicidal rating MOOVA,[15]; 0.0313 kg/ha,2.0
same,Herbicidal rating MOOVA,[15]; 0.0625 kg/ha,7.0
same,Herbicidal rating MOOVA,[15]; 0.1250 kg/ha,8.0
same,Herbicidal rating MOOVA,[15]; 0.2500 kg/ha,9.0
same,Herbicidal rating MOOVA,[15]; 0.5000 kg/ha,9.0
"CCOC(=O)CN1C(=O)C(CC(=O)O)SC1=Nc1cc(-n2nc(C)n(C(F)F)c2=O)c(F)cc1Cl (stereo not drawn) [Compound 112, 2-{{2-Chloro-5-[4-(difluoromethyl)-4,5-dihydro-3-methyl-5-oxo-1H-1,2,4-triazol-1-yl]-4-fluorophenyl}imino}-4-oxo-3,5-thiazolidinediacetic acid, 3-ethyl ester]",herbicidal rating AMBEL,[1]; rate 0.0158 kg/ha,5.0
same,herbicidal rating AMBEL,[1]; rate 0.0315 kg/ha,9.0
same,herbicidal rating AMBEL,[1]; rate 0.0630 kg/ha,9.0
same,herbicidal rating CASOB,[2]; rate 0.0158 kg/ha,1.0
same,herbicidal rating CASOB,[2]; rate 0.0315 kg/ha,1.0
same,herbicidal rating CASOB,[2]; rate 0.0630 kg/ha,2.0
same,herbicidal rating CHEAL,[3]; rate 0.0158 kg/ha,4.0
same,herbicidal rating CHEAL,[3]; rate 0.0315 kg/ha,9.0
same,herbicidal rating CHEAL,[3]; rate 0.0630 kg/ha,9.0
same,herbicidal rating GALAP,[4]; rate 0.0158 kg/ha,0.0
same,herbicidal rating GALAP,[4]; rate 0.0315 kg/ha,2.0
same,herbicidal rating GALAP,[4]; rate 0.0630 kg/ha,2.0
same,herbicidal rating ECHCG,[5]; rate 0.0158 kg/ha,2.0
same,herbicidal rating ECHCG,[5]; rate 0.0315 kg/ha,4.0
same,herbicidal rating ECHCG,[5]; rate 0.0630 kg/ha,4.0
same,herbicidal rating SETVI,[6]; rate 0.0158 kg/ha,3.0
same,herbicidal rating SETVI,[6]; rate 0.0315 kg/ha,9.0
same,herbicidal rating SETVI,[6]; rate 0.0630 kg/ha,6.0
same,herbicidal rating GLXMAW,[16]; rate 0.0158 kg/ha,5.5
same,herbicidal rating GLXMAW,[16]; rate 0.0315 kg/ha,5.0
same,herbicidal rating GLXMAW,[16]; rate 0.0630 kg/ha,6.0
same,herbicidal rating ORYSAT,[7]; rate 0.0158 kg/ha,2.0
same,herbicidal rating ORYSAT,[7]; rate 0.0315 kg/ha,2.0
same,herbicidal rating ORYSAT,[7]; rate 0.0630 kg/ha,2.5
same,Preemergence herbicidal rating CHEAL,[8]; rate 0.2500 kg/ha,1.0
same,Preemergence herbicidal rating IPOHE,[17]; rate 0.0313 kg/ha,0.0
same,Preemergence herbicidal rating IPOHE,[17]; rate 0.0625 kg/ha,0.0
same,Preemergence herbicidal rating IPOHE,[17]; rate 0.1250 kg/ha,0.0
same,Preemergence herbicidal rating IPOHE,[17]; rate 0.2500 kg/ha,0.0
same,Preemergence herbicidal rating ECHCG,[9]; rate 0.0313 kg/ha,0.0
same,Preemergence herbicidal rating ECHCG,[9]; rate 0.0625 kg/ha,0.0
same,Preemergence herbicidal rating ECHCG,[9]; rate 0.1250 kg/ha,0.0
same,Preemergence herbicidal rating ECHCG,[9]; rate 0.2500 kg/ha,0.0
same,Preemergence herbicidal rating SETVI,[10]; rate 0.0313 kg/ha,1.0
same,Preemergence herbicidal rating SETVI,[10]; rate 0.0625 kg/ha,0.0
same,Preemergence herbicidal rating SETVI,[10]; rate 0.1250 kg/ha,0.0
same,Preemergence herbicidal rating SETVI,[10]; rate 0.2500 kg/ha,0.0
same,Preemergence herbicidal rating ZEAMX,[11]; rate 0.0313 kg/ha,0.0
same,Preemergence herbicidal rating ZEAMX,[11]; rate 0.0625 kg/ha,0.0
same,Preemergence herbicidal rating ZEAMX,[11]; rate 0.1250 kg/ha,1.0
same,Preemergence herbicidal rating ZEAMX,[11]; rate 0.2500 kg/ha,4.0
same,ECHORC herbicidal effect rating,[12]; 0.0313 kg/ha,0.0
same,ECHORC herbicidal effect rating,[12]; 0.0625 kg/ha,3.0
same,ECHORC herbicidal effect rating,[12]; 0.1250 kg/ha,3.0
same,ECHORC herbicidal effect rating,[12]; 0.2500 kg/ha,3.0
same,CYPIR herbicidal effect rating,[13]; 0.0313 kg/ha,0.0
same,CYPIR herbicidal effect rating,[13]; 0.0625 kg/ha,3.0
same,CYPIR herbicidal effect rating,[13]; 0.1250 kg/ha,6.0
same,CYPIR herbicidal effect rating,[13]; 0.2500 kg/ha,7.0
same,CYPSE herbicidal effect rating,[14]; 0.0313 kg/ha,0.0
same,MOOVA herbicidal effect rating,[15]; 0.0313 kg/ha,9.0
same,MOOVA herbicidal effect rating,[15]; 0.0625 kg/ha,9.0
same,MOOVA herbicidal effect rating,[15]; 0.1250 kg/ha,9.0
same,MOOVA herbicidal effect rating,[15]; 0.2500 kg/ha,9.0
